Assay results: PMC9276671, “A first-in-human Phase I dose-escalation trial of the novel therapeutic peptide, ALM201, demonstrates a favourable safety profile in unselected patients with ovarian cancer and other advanced solid tumours” (British Journal of Cancer, 2022)
No end group written: not given here.

Test: Plasma pharmacokinetics of ALM201 in Phase I patients (validated LC-MS/MS, Phoenix WinNonlin)
Settings: human, plasma, sc; for level at 3 h: day 1 cycle 1, 3 h after dosing; for Tmax: median; for Tmax / AUC(0-t) / Cmax: plasma LC-MS/MS; for AUC(0-t): AUC0-t; for AUC(0-t) / Cmax: Gmean (CV); for level at 0.25 h: day 1 cycle 1, 0.25 h after dosing; for level at 0.75 h: day 1 cycle 1, 0.75 h after dosing; for level at 4 h: day 1 cycle 1, 4 h after dosing
[1] = 40 mg, 40 mg SC, day 1 cycle 1, n = 1
[2] = 40 mg, 40 mg SC, day 3 cycle 1, n = 1
[3] = 40 mg, 40 mg SC, day 18 cycle 1, n = 1
[4] = 40 mg, 40 mg SC, day 18 cycle 2, n = 1
[5] = 40 mg, Plasma concentration, geometric mean (CV%), 40 mg SC, n = 1, LC-MS/MS
[6] = 80 mg, 80 mg SC, day 1 cycle 1, n = 3
[7] = 80 mg, 80 mg SC, day 3 cycle 1, n = 3
[8] = 80 mg, 80 mg SC, day 18 cycle 1, n = 2, CV not calculated
[9] = 80 mg, 80 mg SC, day 18 cycle 2, n = 1
[10] = 80 mg, Plasma concentration, geometric mean (CV%), 80 mg SC, n = 3, LC-MS/MS

Sequence: IRQQPRDPPTETLELEVSPDPAS [ALM201]
- level at 1.5 h (20 mg, Plasma concentration, geometric mean (CV%), 20 mg SC, day 1 cycle 1, 1.5 h after dosing, n = 1, LC-MS/MS): 542 ng/mL
- level at 2 h (20 mg, Plasma concentration, geometric mean (CV%), 20 mg SC, day 1 cycle 1, 2 h after dosing, n = 1, LC-MS/MS): 417 ng/mL
- level at 3 h (20 mg, Plasma concentration, geometric mean (CV%), 20 mg SC, n = 1, LC-MS/MS): 224 ng/mL
- level at 0.5 h (20 mg, Plasma concentration, geometric mean (CV%), 20 mg SC, day 3 cycle 1, 0.5 h after dosing, n = 1, LC-MS/MS): 210 ng/mL
- level at 1 h (20 mg, Plasma concentration, geometric mean (CV%), 20 mg SC, day 3 cycle 1, 1 h after dosing, n = 1, LC-MS/MS): 614 ng/mL
- level at 1.5 h (20 mg, Plasma concentration, geometric mean (CV%), 20 mg SC, day 3 cycle 1, 1.5 h after dosing, n = 1, LC-MS/MS): 532 ng/mL
- level at 2 h (20 mg, Plasma concentration, geometric mean (CV%), 20 mg SC, day 3 cycle 1, 2 h after dosing, n = 1, LC-MS/MS): 377 ng/mL
- level at 3.5 h (20 mg, Plasma concentration, geometric mean (CV%), 20 mg SC, day 3 cycle 1, 3.5 h after dosing, n = 1, LC-MS/MS): 134 ng/mL
- level at 0.5 h (20 mg, Plasma concentration, geometric mean (CV%), 20 mg SC, day 18 cycle 1, 0.5 h after dosing, n = 1, LC-MS/MS): 194 ng/mL
- level at 1 h (20 mg, Plasma concentration, geometric mean (CV%), 20 mg SC, day 18 cycle 1, 1 h after dosing, n = 1, LC-MS/MS): 319 ng/mL
- level at 1.5 h (20 mg, Plasma concentration, geometric mean (CV%), 20 mg SC, day 18 cycle 1, 1.5 h after dosing, n = 1, LC-MS/MS): 314 ng/mL
- level at 2 h (20 mg, Plasma concentration, geometric mean (CV%), 20 mg SC, day 18 cycle 1, 2 h after dosing, n = 1, LC-MS/MS): 224 ng/mL
- level at 3.5 h (20 mg, Plasma concentration, geometric mean (CV%), 20 mg SC, day 18 cycle 1, 3.5 h after dosing, n = 1, LC-MS/MS): 113 ng/mL
- level at 0.5 h (20 mg, Plasma concentration, geometric mean (CV%), 20 mg SC, day 18 cycle 2, 0.5 h after dosing, n = 1, LC-MS/MS): 279 ng/mL
- level at 1 h (20 mg, Plasma concentration, geometric mean (CV%), 20 mg SC, day 18 cycle 2, 1 h after dosing, n = 1, LC-MS/MS): 394 ng/mL
- level at 1.5 h (20 mg, Plasma concentration, geometric mean (CV%), 20 mg SC, day 18 cycle 2, 1.5 h after dosing, n = 1, LC-MS/MS): 352 ng/mL
- level at 2 h (20 mg, Plasma concentration, geometric mean (CV%), 20 mg SC, day 18 cycle 2, 2 h after dosing, n = 1, LC-MS/MS): 386 ng/mL
- level at 3.5 h (20 mg, Plasma concentration, geometric mean (CV%), 20 mg SC, day 18 cycle 2, 3.5 h after dosing, n = 1, LC-MS/MS): 162 ng/mL
- Tmax (20 mg, 20 mg SC, day 1 cycle 1, n = 1): 1.5 h
- Tmax (20 mg, 20 mg SC, day 3 cycle 1, n = 1): 1 h
- Tmax (20 mg, 20 mg SC, day 18 cycle 1, n = 1): 1.02 h
- AUC(0-t) [1]: 1920 ng·h/mL
- AUC(0-t) [2]: 898 ng·h/mL
- AUC(0-t) [3]: 1840 ng·h/mL
- AUC(0-t) [4]: 1950 ng·h/mL
- Cmax [1]: 592 ng/mL
- Cmax [2]: 759 ng/mL
- Cmax [3]: 405 ng/mL
- level at 0.25 h [5]: 316 ng/mL
- level at 0.75 h [5]: 556 ng/mL
- level at 1.5 h (40 mg, Plasma concentration, geometric mean (CV%), 40 mg SC, day 1 cycle 1, 1.5 h after dosing, n = 1, LC-MS/MS): 592 ng/mL
- level at 2 h (40 mg, Plasma concentration, geometric mean (CV%), 40 mg SC, day 1 cycle 1, 2 h after dosing, n = 1, LC-MS/MS): 540 ng/mL
- level at 3 h [5]: 368 ng/mL
- level at 4 h [5]: 223 ng/mL
- level at 5 h (40 mg, Plasma concentration, geometric mean (CV%), 40 mg SC, day 1 cycle 1, 5 h after dosing, n = 1, LC-MS/MS): 158 ng/mL
- level at 0.5 h (40 mg, Plasma concentration, geometric mean (CV%), 40 mg SC, day 3 cycle 1, 0.5 h after dosing, n = 1, LC-MS/MS): 264 ng/mL
- level at 1 h (40 mg, Plasma concentration, geometric mean (CV%), 40 mg SC, day 3 cycle 1, 1 h after dosing, n = 1, LC-MS/MS): 444 ng/mL
- level at 1.5 h (40 mg, Plasma concentration, geometric mean (CV%), 40 mg SC, day 3 cycle 1, 1.5 h after dosing, n = 1, LC-MS/MS): 759 ng/mL
- level at 2 h (40 mg, Plasma concentration, geometric mean (CV%), 40 mg SC, day 3 cycle 1, 2 h after dosing, n = 1, LC-MS/MS): 656 ng/mL
- level at 0.5 h (40 mg, Plasma concentration, geometric mean (CV%), 40 mg SC, day 18 cycle 1, 0.5 h after dosing, n = 1, LC-MS/MS): 348 ng/mL
- level at 1 h (40 mg, Plasma concentration, geometric mean (CV%), 40 mg SC, day 18 cycle 1, 1 h after dosing, n = 1, LC-MS/MS): 405 ng/mL
- level at 1.5 h (40 mg, Plasma concentration, geometric mean (CV%), 40 mg SC, day 18 cycle 1, 1.5 h after dosing, n = 1, LC-MS/MS): 397 ng/mL
- level at 2 h (40 mg, Plasma concentration, geometric mean (CV%), 40 mg SC, day 18 cycle 1, 2 h after dosing, n = 1, LC-MS/MS): 368 ng/mL
- level at 3.5 h (40 mg, Plasma concentration, geometric mean (CV%), 40 mg SC, day 18 cycle 1, 3.5 h after dosing, n = 1, LC-MS/MS): 377 ng/mL
- level at 5 h (40 mg, Plasma concentration, geometric mean (CV%), 40 mg SC, day 18 cycle 1, 5 h after dosing, n = 1, LC-MS/MS): 113 ng/mL
- level at 0.5 h (40 mg, Plasma concentration, geometric mean (CV%), 40 mg SC, day 18 cycle 2, 0.5 h after dosing, n = 1, LC-MS/MS): 384 ng/mL
- level at 1 h (40 mg, Plasma concentration, geometric mean (CV%), 40 mg SC, day 18 cycle 2, 1 h after dosing, n = 1, LC-MS/MS): 583 ng/mL
- level at 1.5 h (40 mg, Plasma concentration, geometric mean (CV%), 40 mg SC, day 18 cycle 2, 1.5 h after dosing, n = 1, LC-MS/MS): 565 ng/mL
- level at 2 h (40 mg, Plasma concentration, geometric mean (CV%), 40 mg SC, day 18 cycle 2, 2 h after dosing, n = 1, LC-MS/MS): 571 ng/mL
- level at 3.5 h (40 mg, Plasma concentration, geometric mean (CV%), 40 mg SC, day 18 cycle 2, 3.5 h after dosing, n = 1, LC-MS/MS): 347 ng/mL
- Tmax [1]: 1.63 h
- Tmax [2]: 1.5 h
- Tmax [3]: 1 h
- Tmax [4]: 1.03 h
- AUC(0-t) [6]: 3380 ng·h/mL
- AUC(0-t) [7]: 2970 ng·h/mL
- AUC(0-t) [8]: 3500 ng·h/mL
- AUC(0-t) [9]: 3230 ng·h/mL
- Cmax [6]: 835 ng/mL
- Cmax [7]: 861 ng/mL
- Cmax [8]: 1090 ng/mL
- Cmax [9]: 849 ng/mL
- level at 0.25 h [10]: 292 ng/mL
- level at 0.75 h [10]: 700 ng/mL
- level at 1.5 h (80 mg, Plasma concentration, geometric mean (CV%), 80 mg SC, day 1 cycle 1, 1.5 h after dosing, n = 3, LC-MS/MS): 800 ng/mL
- level at 2 h (80 mg, Plasma concentration, geometric mean (CV%), 80 mg SC, day 1 cycle 1, 2 h after dosing, n = 3, LC-MS/MS): 727 ng/mL
- level at 3 h [10]: 689 ng/mL
- level at 4 h [10]: 556 ng/mL
- level at 5 h (80 mg, Plasma concentration, geometric mean (CV%), 80 mg SC, day 1 cycle 1, 5 h after dosing, n = 3, LC-MS/MS): 359 ng/mL
- level at 6 h (80 mg, Plasma concentration, geometric mean (CV%), 80 mg SC, day 1 cycle 1, 6 h after dosing, n = 3, LC-MS/MS): 248 ng/mL
- level at 0.5 h (80 mg, Plasma concentration, geometric mean (CV%), 80 mg SC, day 3 cycle 1, 0.5 h after dosing, n = 3, LC-MS/MS): 578 ng/mL
- level at 1 h (80 mg, Plasma concentration, geometric mean (CV%), 80 mg SC, day 3 cycle 1, 1 h after dosing, n = 3, LC-MS/MS): 684 ng/mL
- level at 1.5 h (80 mg, Plasma concentration, geometric mean (CV%), 80 mg SC, day 3 cycle 1, 1.5 h after dosing, n = 3, LC-MS/MS): 827 ng/mL
- level at 2 h (80 mg, Plasma concentration, geometric mean (CV%), 80 mg SC, day 3 cycle 1, 2 h after dosing, n = 3, LC-MS/MS): 826 ng/mL
- level at 3.5 h (80 mg, Plasma concentration, geometric mean (CV%), 80 mg SC, day 3 cycle 1, 3.5 h after dosing, n = 3, LC-MS/MS): 524 ng/mL
- level at 5 h (80 mg, Plasma concentration, geometric mean (CV%), 80 mg SC, day 3 cycle 1, 5 h after dosing, n = 3, LC-MS/MS): 325 ng/mL
- level at 0.5 h (80 mg, Plasma concentration, geometric mean (CV%), 80 mg SC, day 18 cycle 1, 0.5 h after dosing, n = 2, LC-MS/MS): 769 ng/mL
- level at 1 h (80 mg, Plasma concentration, geometric mean (CV%), 80 mg SC, day 18 cycle 1, 1 h after dosing, n = 2, LC-MS/MS): 946 ng/mL
- level at 1.5 h (80 mg, Plasma concentration, geometric mean (CV%), 80 mg SC, day 18 cycle 1, 1.5 h after dosing, n = 2, LC-MS/MS): 884 ng/mL
- level at 2 h (80 mg, Plasma concentration, geometric mean (CV%), 80 mg SC, day 18 cycle 1, 2 h after dosing, n = 2, LC-MS/MS): 1060 ng/mL
- level at 3.5 h (80 mg, Plasma concentration, geometric mean (CV%), 80 mg SC, day 18 cycle 1, 3.5 h after dosing, n = 2, LC-MS/MS): 545 ng/mL
- level at 5 h (80 mg, Plasma concentration, geometric mean (CV%), 80 mg SC, day 18 cycle 1, 5 h after dosing, n = 2, LC-MS/MS): 407 ng/mL
- level at 0.5 h (80 mg, Plasma concentration, geometric mean (CV%), 80 mg SC, day 18 cycle 2, 0.5 h after dosing, n = 1, LC-MS/MS): 394 ng/mL
- level at 1 h (80 mg, Plasma concentration, geometric mean (CV%), 80 mg SC, day 18 cycle 2, 1 h after dosing, n = 1, LC-MS/MS): 808 ng/mL
- level at 1.5 h (80 mg, Plasma concentration, geometric mean (CV%), 80 mg SC, day 18 cycle 2, 1.5 h after dosing, n = 1, LC-MS/MS): 659 ng/mL
- level at 2 h (80 mg, Plasma concentration, geometric mean (CV%), 80 mg SC, day 18 cycle 2, 2 h after dosing, n = 1, LC-MS/MS): 639 ng/mL
- level at 3.5 h (80 mg, Plasma concentration, geometric mean (CV%), 80 mg SC, day 18 cycle 2, 3.5 h after dosing, n = 1, LC-MS/MS): 849 ng/mL
- Tmax [6]: 1.53 h
- Tmax (80 mg, 80 mg SC, day 18 cycle 1, n = 2): 1.23 h
